Test results reported in patent US8535693B2, “Topical formulation(s) for the treatment of inflammation, skin and mucosal disorders and other diseases thereof” (Laila Pharmaceuticals Private Limited, priority 2008, dated 2013).

Columns and labels:
[1] = tested on: TNFα-induced gene expression in Human Microvascular Endothelial Cells (HMEC); assay: Microarray study of TNFα-induced gene expression in HMEC; assay type: cell-based
Protocol: Effects of BDMC/Curcumin/Curcuminoids were Studied in TNFα-Induced Gene Expression in Human Microvascular Endothelial Cells (HMEC):
Micro array analysis was carried out to identify the sets of gene differentially expressed in TNFα treated endothelial cells pretreated/not pretreated with demethylated curcuminoids (BMDC, curcumin)/with curcuminoids. Data acquisition and image processing were performed using GCOS (Gene Chip Operating Software, Affymetrix). Genes that were >2.0 fold up regulated in TNFα-treated group compared to TNFα untreated control group were selected and subjected to hierarchical clustering. […] These sub-clusters were subjected to further functional analysis using DAVID (Database for Annotation, Visualization and Integrated Discovery NIAID, NIH) (FIG. 10, 11). Major known pathways (KEGG, Kyoto Encyclopedia of Genes and Genomes) identified in each of the cluster have been illustrated as pathway maps marking the candidate genes.
GeneChip™ screening of TNFα-inducible transcriptome of HMEC identified 1195 probe sets that were induced by a magnitude of two-fold or higher.

phosphorylase kinase = conditions: Reddy & Aggarwal, FEBS Lett 1994; cited from earlier work
psoriasis = conditions: Heng et al., Br J Dermatol 2000; cited from earlier work
[2] = Particle size distribution study (Malvern particle size analyzer, laser diffraction); assay type: physicochemical; conditions: nanoemulsified vs unformulated
Protocol: This study proves that a curcumin molecule which is originally 374 nm in the unformulated form is emulsified into 8-11 nm sized particles through a unique process, which has been indicated for this enhanced transport and efficacy of curcumin through the formulation. The study was conducted using Malvern particle size analyzer. The map of scattering intensity versus angle is the primary source of information used to calculate the particle size. The scattering of particles is accurately predicted by the Mie scattering model allowing accurate sizing across the widest possible dynamic range. During the laser diffraction measurement, particles are passed through a focused laser beam. These particles scatter light at an angle that is inversely proportional to their size. The angular intensity of the scattered light is then measured by a series of photosensitive detectors. The advantage of this study is that there is no sample preparation involved. […] Additional peaks can be observed which is contributed by the high molecular weight excipients used to prepare the formulation.

O=C(/C=C/c1ccc(O)c(O)c1)CC(=O)/C=C/c1ccc(O)c(O)c1 [bis-O-demethyl curcumin, Bis-O-Demethyl curcumin]
effect on TNFα ([1]; HMEC challenged with TNFα): antagonizing effects on TNFα
number of TNFα inducible genes sensitive to the substance ([1]; microvascular endothelial cells challenged with TNFα, 1195 probe sets induced two-fold or higher): 1065 genes

COc1cc(/C=C/C(=O)CC(=O)/C=C/c2ccc(O)c(OC)c2)ccc1O [curcumin]
phosphorylase kinase inhibition (phosphorylase kinase): selective phosphorylase kinase inhibitor
resolution of psoriasis (psoriasis): leads to resolution of psoriasis
particle size [2]: 374 nm
particle size ([2]; listed as unformulated curcumin 98%): 373 nm
